{"source": "patent US20240399360A1", "about": "“DEVICES AND METHODS FOR CREATING TRANSCELLULAR PORES” (Georgia Tech Research Corporation, priority 2023, published 2024)", "assay_type_in_all_cases": "cell-based, human", "key": {"phSC cells [1]": {"tested_on": "phSC cells", "assay": "Cell stiffness measurement by atomic force microscopy (AFM)", "experimental": "Cell stiffness measurement: SC cells were seeded on coverslips and grown to confluence. An MFD-3D AFM (Asylum Research, Santa Barbara, CA, USA) was used to make stiffness measurements using silicon nitride cantilevers with an attached borosilicate sphere (diameter=10 μm; nominal spring constant=0.1 N/m; Novascan Technologies, Inc., Ames, IA, USA). […] The indentation depth was limited to 400 nm to avoid substrate effects and the tip velocity was adjusted to 800 nm/s to avoid viscous effects^37. 5 measurements/cell were conducted, and at least 5 cells were measured/cell strain. Data from AFM measurements were fitted to the Hertz model to calculate the Young's Modulus of the cells."}, "phSC cells [2]": {"tested_on": "phSC cells", "assay": "Particle-induced transcellular pore formation, fluorescent pore-label assay, cells seeded above microparticles", "experimental": "Substrate preparation and cell culture for transcellular pore formation using microparticles: Round cover glasses (12 mm in diameter) were employed for SEM imaging, while 16-well chambered cover glasses (16 wells per cover glass; Invitrogen C37000) were utilized for other experiments. Glass substrates underwent plasma treatment (Harrick Plasma, PDC-32G) for 2 minutes at high RF power and were immediately incubated at 37° C. with 0.5 mg/mL biotinylated gelatin for 24 hours. After three washes with PBS, the cover glasses were incubated with microbial transglutaminase (0.001 unit/mL in 20 mM Tris-HCl and 150 mM NaCl, pH 8; Sigma-Aldrich SAE0159) at 37° C. for 24 hours to crosslink the gelatin coating and enhance phSC cell attachment on the substrate. Following three additional washes with PBS, the cover glasses were UV sterilized in a biosafety cabinet for 1 hour. Carboxyl ferromagnetic particles (4.0-4.9 μm, Spherotech, Inc. CFM-40-10) were vortexed and added to the substrate. The particles were allowed to randomly sink onto the substrate to achieve an approximate density of 1 particle per 1000 μm^2. Non-adherent particles were removed by washing three times with PBS, followed by seeding phSC cells (passage 4-6; 7.5 k cells/cm^2). The cells were then cultured for 2 to 7 hours in DMEM supplemented with 1% FBS and 1×PSG at 37° C. with 5% CO2. The culture time was chosen as the minimum duration necessary for the cells to adopt a spread configuration similar to that observed in situ. Note that this culture time (2 to 7 hours) varied for the tested cell strains. Alternatively, in some experiments, apical-to-basal cell stretching was achieved by adding particles above fully spread cells. High-content screening of transcellular pores: Upon achieving full cell spreading over particles, cells were incubated with the first pore label for 5 minutes, followed by three washes with cell media. Subsequently, cells were either exposed to a magnetic field (as detailed below) or incubated solely with cell media for 10 minutes. Afterward, the cells were incubated with the second pore label (5 μg/mL; Streptavidin, Alexa Fluor 647 Conjugate, Invitrogen S32357) for 5 minutes, all at 37° C. The cells were then immediately washed three times with PBS, fixed with 4% formaldehyde for 15 minutes at room temperature, washed three times with PBS, permeabilized with 0.1% Triton X for 15 minutes, and stained with NucBlue Fixed Cell Ready Probes Reagent (6 drops/mL; Invitrogen R37606) and Alexa Fluor 555 Phalloidin (0.165 μM; Invitrogen R34055) for 1 hour at room temperature. Following these steps, cells were washed three times with PBS, the cover glass was detached from the rest of the 16-well chambered system, mounted on another cover glass using Prolong Gold Antifade Mountant (Invitrogen P10144), and stored in the dark until examination with a Leica DM6 B upright microscope system. Fluorescent and brightfield images were acquired using a 10× objective to generate tile scans for each well. To exclude cells near the well edges, a 4 mm diameter circle was delineated at the center of each image, and the analysis was restricted to the cells within this 4 mm circle. The number of cells, particles beneath cells, and pores were manually counted. Pores incidence rate was quantified as the number of pores associated with particles divided by the number of particles, multiplied by 100. […]"}, "phSC cells [3]": {"tested_on": "phSC cells", "assay": "Cell area after treatment (fluorescent images of actin network and nuclei)", "details": "Y-27632 treatments; nSC74, nSC75, nSC82, nSC89; 2-way ANOVA; FIGS. 12A-12B", "experimental": "Treatment with Y-27632 ROCK inhibitor: Cells were seeded above microparticles in 16-well chambered slides in DMEM supplemented with 10% FBS, 1×PSG and allowed to spread for 3.5 hours at 37° C. with 5% CO2. Subsequently, the cells were incubated with 10 μM Y-27632 (Sigma, Y0503) in DMEM supplemented with 1% FBS, 1×PSG for 30 minutes, followed by the first pore label for 5 minutes. Following incubation, the cells were washed, fixed, stained for nuclei and actin filaments, and imaged as described in the section titled “High-content screening of transcellular pores.”"}, "phSC cells [4]": {"tested_on": "phSC cells", "assay": "Transcellular pore detection with particles placed on top of cells (apical-to-basal deformation)", "details": "10 μM, instead of magnetic field, FIGS. 14A-14B", "experimental": "Substrate preparation and cell culture for transcellular pore formation using microparticles: Round cover glasses (12 mm in diameter) were employed for SEM imaging, while 16-well chambered cover glasses (16 wells per cover glass; Invitrogen C37000) were utilized for other experiments. Glass substrates underwent plasma treatment (Harrick Plasma, PDC-32G) for 2 minutes at high RF power and were immediately incubated at 37° C. with 0.5 mg/mL biotinylated gelatin for 24 hours. After three washes with PBS, the cover glasses were incubated with microbial transglutaminase (0.001 unit/mL in 20 mM Tris-HCl and 150 mM NaCl, pH 8; Sigma-Aldrich SAE0159) at 37° C. for 24 hours to crosslink the gelatin coating and enhance phSC cell attachment on the substrate. […]\nHigh-content screening of transcellular pores: Upon achieving full cell spreading over particles, cells were incubated with the first pore label for 5 minutes, followed by three washes with cell media. […] The cells were then immediately washed three times with PBS, fixed with 4% formaldehyde for 15 minutes at room temperature, washed three times with PBS, permeabilized with 0.1% Triton X for 15 minutes, and stained with NucBlue Fixed Cell Ready Probes Reagent (6 drops/mL; Invitrogen R37606) and Alexa Fluor 555 Phalloidin (0.165 μM; Invitrogen R34055) for 1 hour at room temperature. […]"}, "[5]": {"details": "primary human SC cells, summary statement without cell strain"}}, "note": "Entries after “also recorded” stand apart in the source; their conditions may differ."}
{"molecule": "C[C@@H](N)[C@H]1CC[C@H](C(=O)Nc2ccncc2)CC1", "note": "[Y-27632]", "values": [{"measurement": "cell stiffness", "setting": "phSC cells [1]; Y-27632 treatment, four normal cell strains nSC74, nSC75, nSC82, nSC89, FIG. 6C", "result": "decreased cell stiffness"}, {"measurement": "particle-induced pore formation", "setting": "phSC cells [2]; Y-27632 treatment, four normal cell strains nSC74, nSC75, nSC82, nSC89, FIG. 6D", "result": "increased pore formation in a dose-dependent manner"}, {"measurement": "pore formation", "setting": "phSC cells [2]; [5]", "result": "increased pore formation"}, {"measurement": "cell area", "setting": "phSC cells [3]", "result": "did not significantly affect; also recorded: no significant effect"}, {"measurement": "transcellular pores at particle locations", "setting": "phSC cells [4]", "result": "did not induce transcellular pores; also recorded: failed to induce transcellular pores"}]}
{"molecule": "CCCCCCCCCCCCC/C=C/[C@@H](O)[C@@H](N)COP(=O)(O)O", "note": "[SIP, sphingosine-1-phosphate]", "values": [{"measurement": "cell stiffness", "setting": "phSC cells [1]; SIP treatment, nSC74, FIG. 13A", "result": "did not have a significant effect; also recorded: did not affect"}, {"measurement": "cell stiffness", "setting": "phSC cells [1]; SIP treatment, nSC75 and nSC89, FIG. 13A", "result": "increased cell stiffness; also recorded: significant increase"}, {"measurement": "pore formation", "setting": "phSC cells [2]; SIP treatment, nSC74, FIG. 13B", "result": "did not have a significant effect; also recorded: did not affect"}, {"measurement": "pore formation", "setting": "phSC cells [2]; SIP treatment, nSC75 and nSC89, FIG. 13B", "result": "decreased pore formation; also recorded: decrease"}, {"measurement": "pore formation", "setting": "phSC cells [2]; [5]", "result": "decreased pore formation"}]}
